5 molecules from patent publication US9113629B2, “4-amino-6-(4-substituted-phenyl)-picolinates and 6-amino-2-(4-substituted-phenyl)-pyrimidine-4-carboxylates and their use as herbicides” (DOW AGROSCIENCES LLC, priority 2013, dated 2015) can be followed below.

Assay type in all cases: in vivo
The test system of test [1] is ECHCG: barnyardgrass (Echinochloa crus-galli). In words: Pre-emergent Test I herbicidal activity. Particulars: pre-emergence, 336 h, read-out: Visual Growth Reduction (%) 14 Days After Application, ECHCG; for pest or weed control at 4000 g/ha: 4 kg ai/ha. How it is done:
(§1) Pre-emergent Test I Seeds of test species were planted into round plastic pots (5-inch diameter) containing sandy loam soil. After planting, all pots were sub-irrigated 16 h prior to compound application. Compounds were dissolved in a 97:3 v/v (volume/volume) mixture of acetone and dimethyl sulfoxide (DMSO) and diluted to the appropriate concentration in a final application solution containing water, acetone, isopropanol, DMSO and Agri-dex (crop oil concentrate) in a 59:23:15:1.0:1.5 v/v ratio and 0.02% w/v (weight/volume) of Triton X-155 to obtain the spray solution containing the highest application rate. Additional application rates were obtained by serial dilution of the high rate solution with the above application solution. Formulated compound (2.7 mL) was applied pipetted evenly over the soil surface followed by incorporation with water (15 mL). Following treatment, pots were returned to the greenhouse for the duration of the experiment. The greenhouse was programmed for an approximate 15 h photoperiod which was maintained at about 23-29° C. during the day and 22-28° C. during the night. Nutrients and water were added on a regular basis through surface irrigation and supplemental lighting was provided with overhead metal halide 1000-Watt lamps as necessary. Herbicidal effect ratings were obtained 14 days after treatment. All evaluations were made relative to appropriate controls on a scale of 0 to 100 where 0 represents no herbicidal effect and 100 represents plant death or lack of emergence from the soil.

In test [2] the test system is SETFA: giant foxtail (Setaria faberi). In words: Pre-emergent Test I herbicidal activity. The conditions noted are these: pre-emergence, 336 h, read-out: Visual Growth Reduction (%) 14 Days After Application, SETFA; for pest or weed control at 4000 g/ha: 4 kg ai/ha. How it is done: as §1
Test [3] has as its system AVEFA: wild oats (Avena fatua). Briefly: Pre-emergent Test I herbicidal activity. Particulars: pre-emergence, 336 h, read-out: Visual Growth Reduction (%) 14 Days After Application, AVEFA; for pest or weed control at 4000 g/ha: 4 kg ai/ha. How it is done: as §1
The test system of test [4] is IPOHE: ivyleaf morningglory (Ipomoea hederecea). Briefly: Pre-emergent Test I herbicidal activity. The conditions noted are these: pre-emergence, 336 h, read-out: Visual Growth Reduction (%) 14 Days After Application, IPOHE; for pest or weed control at 4000 g/ha: 4 kg ai/ha. As for the experimental part: as §1
The subject of test [5] is HELAN: sunflower (Helianthus annuus). In words: Pre-emergent Test I herbicidal activity. Particulars: pre-emergence, 336 h, read-out: Visual Growth Reduction (%) 14 Days After Application, HELAN; for pest or weed control at 4000 g/ha: 4 kg ai/ha. How it is done:
as §1

Test [6] has as its system BROTE: downy brome (Bromus tectorum). In words: Post-emergent Test III, herbicidal activity in wheat and barley. Particulars: for pest or weed control at 35 g/ha / pest or weed control at 70 g/ha / pest or weed control at 140 g/ha: Bromus tectorum, post-emergence, 504 h, read-out: Visual Growth Reduction (%) 21 Days After Application BROTE; for pest or weed control at 35 g/ha: 35 g ai/ha; for pest or weed control at 70 g/ha: 70 g ai/ha; for pest or weed control at 140 g/ha: 140 g ai/ha; for GR50 BROTE / GR80 BROTE: probit analysis, 21 days after application; for GR50 BROTE: dose for growth reduction of 50 percent; for GR80 BROTE: dose for growth reduction of 80 percent. The method in brief:
(§2)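 Plants at the second to third true-leaf stage, grown in a greenhouse at about 18/17 °C with a 14 h photoperiod, were sprayed post-emergence at 187 L/ha with the high rate and ½× to 1/16× serial dilutions in an acetone/DMSO/crop-oil/surfactant carrier. Injury was rated visually at 21 d on a 0–100% scale, and GR20–GR90 were derived by probit analysis.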

The subject of test [7] is LAMSS. The description is as above. The conditions noted are these: for pest or weed control at 35 g/ha / pest or weed control at 70 g/ha / pest or weed control at 140 g/ha: post-emergence, 504 h, read-out: Visual Growth Reduction (%) 21 Days After Application LAMSS; for pest or weed control at 35 g/ha: 35 g ai/ha; for pest or weed control at 70 g/ha: 70 g ai/ha; for pest or weed control at 140 g/ha: 140 g ai/ha; for GR50 LAMSS / GR80 LAMSS: probit analysis, 21 days after application; for GR50 LAMSS: dose for growth reduction of 50 percent; for GR80 LAMSS: dose for growth reduction of 80 percent. The method in brief: as §2

For test [8], the system named is VERPE: bird's-eye speedwell (veronica persica). Described as above. The conditions noted are these: for pest or weed control at 35 g/ha / pest or weed control at 70 g/ha / pest or weed control at 140 g/ha: Veronica persica, post-emergence, 504 h, read-out: Visual Growth Reduction (%) 21 Days After Application VERPE; for pest or weed control at 35 g/ha: 35 g ai/ha; for pest or weed control at 70 g/ha: 70 g ai/ha; for pest or weed control at 140 g/ha: 140 g ai/ha; for GR50 VERPE / GR80 VERPE: probit analysis, 21 days after application; for GR50 VERPE: dose for growth reduction of 50 percent; for GR80 VERPE: dose for growth reduction of 80 percent. The method, boiled down:
as §2

The subject of test [9] is AMARE: redroot pigwseed (Amaranthus retroflexus). Briefly: Pre-emergent Test I herbicidal activity. Particulars: pre-emergence, 336 h, 2 kg ai/ha, read-out: Visual Growth Reduction (%) 14 Days After Application, AMARE. As for the experimental part:
as §1

As for `Nc1c(F)c(-c2ccc(Br)cc2)nc(C(=O)O)c1Cl` [Compound 20], in test [1], the pest or weed control at 4000 g/ha was in the range of 95 to 100%. The pest or weed control at 4000 g/ha in test [2] lay within 95 to 100%. Further, in test [3], the pest or weed control at 4000 g/ha lay in the range of 95 to 100%. The pest or weed control at 4000 g/ha in test [4] was in the range of 95 to 100%. The pest or weed control at 4000 g/ha in [5] is 95 to 100%. In addition, in test [6], the pest or weed control at 35 g/ha lay in the range of 75 to 84%, the pest or weed control at 70 g/ha was 85 to 94%, the pest or weed control at 140 g/ha fell in the range of 85 to 94% and the “GR50 BROTE” value was determined as 3 g ai/ha. Besides, in [6], the “GR80 BROTE” value worked out at 87 g ai/ha. For the same molecule, in [7], the pest or weed control at 35 g/ha fell in the range of 95 to 100%, the pest or weed control at 70 g/ha was in the range of 95 to 100%, the pest or weed control at 140 g/ha lay within 95 to 100% and the “GR50 LAMSS” value is 1 g ai/ha. Moreover, in test [7], the “GR80 LAMSS” value is listed as 1 g ai/ha. Besides, in test [8], the pest or weed control at 35 g/ha lay within 60 to 74%, the pest or weed control at 70 g/ha lay in the range of 60 to 74%, the pest or weed control at 140 g/ha was in the range of 75 to 84% and the “GR50 VERPE” value was determined as 33 g ai/ha. Moreover, in test [8], the “GR80 VERPE” value is over 140 g ai/ha.

Regarding `N#Cc1ccc(-c2nc(C(=O)O)c(Cl)c(N)c2F)cc1` [Compound 39], the pest or weed control at 2000 g/ha in test [1] (2 kg ai/ha) lay within 95 to 100%; in test [3] (2 kg ai/ha) it was 85 to 94%; in test [4] (2 kg ai/ha), 95 to 100%; in [9], 95 to 100%; in [5] (2 kg ai/ha), 95 to 100%. In addition, the pest or weed control at 35 g/ha in test [6] was 0 to 29%; in test [7], 95 to 100%; in [8], 85 to 94%. The pest or weed control at 70 g/ha in test [6] lay within 0 to 29%; in [7] it was 95 to 100%; in test [8] it was 85 to 94%. Also, the pest or weed control at 140 g/ha in [6] was in the range of 0 to 29%; in test [7], 95 to 100%; in [8], 95 to 100%. Also, the “GR50 LAMSS” value in test [7] is recorded as 1 g ai/ha. Besides, in test [7], the “GR80 LAMSS” value came to 1 g ai/ha. For the same molecule, in test [8], the “GR50 VERPE” value came out at 1 g ai/ha. Further, the “GR80 VERPE” value in test [8] came to 12 g ai/ha.

Take `COC(=O)c1nc(-c2ccc(Br)c(F)c2F)c(F)c(N)c1Cl` [Compound 109, methyl 4-amino-6-(4-bromo-2,3-difluorophenyl)-3-chloro-5-fluoropicolinate]: the pest or weed control at 4000 g/ha in test [1] lay in the range of 95 to 100%; in test [2], 95 to 100%; in test [3], 85 to 94%; in test [4] it was 95 to 100%; in [5] it was 75 to 84%. In addition, the results for the pest or weed control at 35 g/ha in test [6] and in [7] were 75 to 84% and 95 to 100%, respectively. The pest or weed control at 70 g/ha lay in the range of 85 to 94% in test [6] and 95 to 100% in test [7]. For the same molecule, the “GR50 BROTE” value in test [6] came out at 14 g ai/ha. Further, the “GR80 BROTE” value in test [6] was 41 g ai/ha. In addition, in test [7], the “GR50 LAMSS” value came out at 1 g ai/ha. Also, the “GR80 LAMSS” value in test [7] came out at 1 g ai/ha.

`Nc1c(F)c(-c2ccc(Br)c(F)c2F)nc(C(=O)O)c1Cl` [Compound 147]: the pest or weed control at 3960 g/ha in [1] (3.96 kg ai/ha) lay in the range of 95 to 100%. Further, the pest or weed control at 3960 g/ha in test [2] (3.96 kg ai/ha) is 95 to 100%. The pest or weed control at 3960 g/ha in test [3] (3.96 kg ai/ha) fell in the range of 95 to 100%. In test [4] (3.96 kg ai/ha), the pest or weed control at 3960 g/ha was in the range of 95 to 100%. In addition, the pest or weed control at 3960 g/ha in test [5] (3.96 kg ai/ha) was in the range of 95 to 100%. In test [6], the pest or weed control at 35 g/ha lay within 75 to 84%, the pest or weed control at 70 g/ha was in the range of 85 to 94%, the pest or weed control at 140 g/ha lay within 85 to 94% and the “GR50 BROTE” value was 6 g ai/ha. Further, the “GR80 BROTE” value in [6] was 28 g ai/ha. In addition, in test [7], the pest or weed control at 35 g/ha is 85 to 94%, the pest or weed control at 70 g/ha is 85 to 94%, the pest or weed control at 140 g/ha is 85 to 94% and the “GR50 LAMSS” value is given as 1 g ai/ha. For the same molecule, the “GR80 LAMSS” value in test [7] came out at 8 g ai/ha.

As for `C=Cc1c(C(=O)O)nc(-c2ccc(Cl)c(F)c2)c(F)c1N` [Compound 214], the pest or weed control at 4040 g/ha in [1] (4.04 kg ai/ha) was in the range of 95 to 100%. In addition, the pest or weed control at 4040 g/ha in test [2] (4.04 kg ai/ha) was in the range of 95 to 100%. Moreover, the pest or weed control at 4040 g/ha in [3] (4.04 kg ai/ha) is 85 to 94%. Further, the pest or weed control at 4040 g/ha in test [4] (4.04 kg ai/ha) was 95 to 100%. In addition, in test [5] (4.04 kg ai/ha), the pest or weed control at 4040 g/ha lay in the range of 95 to 100%. Also, in test [6], the pest or weed control at 35 g/ha lay within 0 to 29%, the pest or weed control at 70 g/ha is 0 to 29%, the pest or weed control at 140 g/ha lay within 0 to 29% and the “GR50 BROTE” value is over 140 g ai/ha. Also, in test [6], the “GR80 BROTE” value is over 140 g ai/ha. Besides, in test [7], the pest or weed control at 35 g/ha lay in the range of 75 to 84%, the pest or weed control at 70 g/ha is 75 to 84%, the pest or weed control at 140 g/ha is 85 to 94% and the “GR50 LAMSS” value was found to be 12 g ai/ha. Also, in [7], the “GR80 LAMSS” value was found to be 33 g ai/ha.
